The source of these data is patent US20250025383A1, “EMOLLIENT COMPOSITION IN EMULSION FORM” (PIERRE FABRE MEDICAMENT, priority 2018, published 2025).

A short description of data set [1]: Measurement of consistency (TAXT+ texture analyser). Type of data set: physicochemical. The note with it: ingredient added to glycerol/Vaseline/liquid paraffin emulsion. On the procedure:
The measurement of consistency is carried out at room temperature (around 20° C.) in a 250 mL glass jar filled to 200 g. The measurement is performed using a TAXT+type texture analyser (Swantec). The consistency of the product is represented by the maximum resistance force of the probe in the product, which is directly proportional to the measured mass. The consistency value is expressed in g.
• 250 g glass jar filled to 200 g • P25 steel cylinder
• Pre-speed: 4 mm/s • Speed: 8 mm/s • Post-speed: 8 mm/s • Displacement: 20 mm • Triggering threshold: 5 g
Fill the container (glass jar) without introducing air into the product.
Tap the jar so as to pack down the cream and to obtain the smoothest surface possible.
Maintain the jar closed […] before carrying out the measurement.

For data set [2] the following is noted: preservative not tested (nt) in emulsion; cited from earlier work.

Take `CCCCC(O)CO` (stereo not shown) [1,2 hexanediol]: in data set [1], the “Effect on the consistency and/or the viscosity of the emulsion” value was “fluidification of the formula”.
In the case of `OB(O)O` [Boric acid], the Comments/other aspects entry in data set [2] was “irritant”.
Consider `O.O.O.O.O.O.O.O.O.O.[Na+].[Na+].[O-]B1OB2OB([O-])OB(O1)O2` [Sodium borate], for which the Comments/other aspects result in data set [2] is “irritant”.
Turning to `CCCCC(CC)COCC(O)CO` (stereo not shown) [ethylhexyl glycerin], the “Effect on the consistency and/or the viscosity of the emulsion” value in data set [1] is “fluidification of the formula”.
